The term pIC50 denotes the IC50 on a negative log10 scale, so that one unit is a factor of ten.

Assay [1] has as its target GST-tagged K-Ras mutant / His-tagged hSOS1 (Homo sapiens, UniProt P01116). The assay can be described thus: HTRF assay, K-Ras mutant / SOS1 interaction. Conditions: read-out: IC50 against mutant Kras. In kind it is binding. The gist of the method: (§1)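 Compounds, in duplicate at six concentrations from 10 μM to 0.01 μM, are added to GST-K-Ras premixed with anti-GST-Eu(K), then His-hSOS1 with anti-6His-XL665. After roughly 10 min, FRET is measured and the emission ratio is used to derive IC50.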

The target in a further assay is T1, wildtype Kras / hSOS1 (Homo sapiens, UniProt P01116).
T1 construct: made in house; host or cells: E. coli BL21 (DE3)
The assay can be described thus: HTRF assay, wildtype Kras / SOS1 interaction. Conditions: read-out: IC50 against wildtype Kras. The assay is classed as binding. The gist of the method:
as §1

Where [2] appears, read: compound nos. 102-196, general methodology of example 5.

pIC50: −log10 of the molar value. Where two headings read alike, the source gives them in different places. A value given as a limit tells only on which side of the number the result lay.

Chain of GST-tagged K-Ras mutant / His-tagged hSOS1 (P01116 whole entry G12D, form open): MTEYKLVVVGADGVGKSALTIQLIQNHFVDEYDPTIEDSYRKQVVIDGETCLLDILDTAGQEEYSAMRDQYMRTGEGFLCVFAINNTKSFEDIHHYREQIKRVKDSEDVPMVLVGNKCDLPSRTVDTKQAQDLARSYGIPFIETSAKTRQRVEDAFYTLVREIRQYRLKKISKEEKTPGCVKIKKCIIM
T1 sequence (P01116 1-188 isoform P01116-2): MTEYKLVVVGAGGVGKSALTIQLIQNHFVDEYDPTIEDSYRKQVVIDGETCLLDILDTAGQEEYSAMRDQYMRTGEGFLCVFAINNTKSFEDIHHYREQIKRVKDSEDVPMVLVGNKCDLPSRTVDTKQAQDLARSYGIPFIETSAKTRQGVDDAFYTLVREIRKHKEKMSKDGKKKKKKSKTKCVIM

As for `CN1CCC[C@H]1COc1nc(N2CCCNCC(F)(F)C2)c2cc(Cl)c(-c3cccc4sc(N)nc34)c(F)c2n1` [Compound 127, 4-(6-chloro-4-(3,3-difluoro-1,5-diazocan-1-yl)-8-fluoro-2-(((S)-1-methylpyrrolidin-2-yl)methoxy)quinazolin-7-yl)benzo[d]thiazol-2-amine], the pIC50 (in assay [1] (setting [2]); at wildtype Kras / hSOS1 (setting [2])) was over 6.30 throughout.
For the compound `Oc1cc(N2CCc3nc(OCC45CCCN4CCC5)nc(N4C[C@H]5CC[C@@H](C4)N5)c3CC2)c2ccccc2c1` [Compound 521, 4-(4-((1R,5S)-3,8-diazabicyclo[3.2.1]octan-3-yl)-2-((tetrahydro-1H-pyrrolizin-7a(5H)-yl)methoxy)-5,6,8,9-tetrahydro-7H-pyrimido[4,5-d]azepin-7-yl)naphthalen-2-ol], the pIC50 (in assay [1] (compound nos. 401-703); on wildtype Kras / hSOS1 (compound nos. 401-703)) was under 6.30 in each case.
Take `CN1CCC[C@H]1COc1nc(N2CCNCC(F)(F)C2)c2cc(Cl)c(-c3cccc4ccc(N)nc34)c(F)c2n1` [Compound 183, 8-(6-chloro-4-(6,6-difluoro-1,4-diazepan-1-yl)-8-fluoro-2-(((S)-1-methylpyrrolidin-2-yl)methoxy)quinazolin-7-yl)quinolin-2-amine]: the pIC50 (in assay [1] (setting [2]); on wildtype Kras / hSOS1 (setting [2])) was under 6.30 each time.
Take `Nc1nc2c(-c3c(Cl)cc4c(N5CCOCC(N)C5)nc(OCC56CCCN5CCC6)nc4c3F)ccc(F)c2s1` (centres unmarked) [Compound 165, 4-(7-(2-amino-7-fluoro-benzo[d]thiazol-4-yl)-6-chloro-8-fluoro-2-((tetra-hydro-1H-pyrrolizin-7a(5H)-yl)methoxy)quinazolin-4-yl)-1,4-oxazepan-6-amine]: the pIC50 (in assay [1] (setting [2]); on wildtype Kras / hSOS1 (setting [2])) was over 6.30 in each case.
On to `Nc1nc2c(-c3c(Cl)cc4c(N5CC6CCC(C5)N6)nc(OCC56CCCN5CCC6)nc4c3F)cc(Cl)cc2s1` [Compound 615, 4-(4-(3,8-diazabicyclo-[3.2.1]octan-3-yl)-6-chloro-8-fluoro-2-((tetrahydro-1H-pyrrolizin-7a(5H)-yl)meth-oxy)quinazolin-7-yl)-6-chlorobenzo[d]thiazol-2-amine], for which the pIC50 in assay [1] (compound nos. 401-703) was over 6.30; at wildtype Kras / hSOS1 (compound nos. 401-703), under 6.30.
On the same counts, the results for `Nc1nc2c(-c3c(Cl)cc4c(N5CCN(Cc6cncnc6)CC(F)(F)C5)nc(OC[C@@]56CCCN5C[C@H](F)C6)nc4c3F)ccc(F)c2s1` [Compound 649, 4-(6-chloro-4-(6,6-difluoro-4-(pyrimidin-5-ylmethyl)-1,4-diazepan-1-yl)-8-fluoro-2-(((2R,7aS)-2-fluorotetra-hydro-1H-pyrrolizin-7a(5H)-yl)methoxy)quinazolin-7-yl)-7-fluorobenzo[d]thiazol-2-amine] are over 6.30 and under 6.30.
Consider `CN1CCC[C@H]1COc1nc(N2C3CCNCC2CC3)c2cc(Cl)c(-c3cccc4sc(N)nc34)c(F)c2n1` (stereo partly drawn) [Compound 180, 4-(4-(3,9-diazabicyclo-[4.2.1]nonan-9-yl)-6-chloro-8-fluoro-2-(((S)-1-methyl-pyrrolidin-2-yl)methoxy)-quinazolin-7-yl)benzo[d]-thiazol-2-amine], for which the pIC50 in assay [1] (setting [2]) was over 6.30; at wildtype Kras / hSOS1 (setting [2]), under 6.30.
As to `N#Cc1ccc2ccccc2c1-c1c(Cl)cc2c(N3CC4CCC(C3)N4)nc(OC[C@@]34CCCN3C[C@H](F)C4)nc2c1F` [Compound 558, 1-(4-(3,8-diazabicyclo-[3.2.1]octan-3-yl)-6-chloro-8-fluoro-2-(((2R,7aS)-2-fluorotetrahydro-1H-pyrrol-izin-7a(5H)-yl)methoxy)-quinazolin-7-yl)-2-naph-thonitrile], the negative logarithm of the IC50 (pIC50) (in assay [1] (compound nos. 401-703); at wildtype Kras / hSOS1 (compound nos. 401-703)) was under 6.30 in each case.
In the case of `Cc1ccc(C2(N)CC2)cc1-c1c(Cl)cc2c(N3CC4CCC(C3)N4)nc(OCC34CCCN3CCC4)nc2c1F` [Compound 661, 1-(3-(4-(3,8-diazabicyclo-[3.2.1]octan-3-yl)-6-chloro-8-fluoro-2-((tetrahydro-1H-pyrrolizin-7a(5H)-yl)meth-oxy)quinazolin-7-yl)-4-methylphenyl)cyclopropan-1-amine], the pIC50 (in assay [1] (compound nos. 401-703); on wildtype Kras / hSOS1 (compound nos. 401-703)) was under 6.30 throughout.
With `CN1CCC[C@H]1COc1nc(N2CCCC(C3CC3)CC2)c2cc(Cl)c(-c3cccc4sc(N)nc34)c(F)c2n1` (stereo partly drawn) [Compound 453, 4-(6-chloro-4-(4-cycloprop-propylazepan-1-yl)-8-fluoro-2-(((S)-1-methylpyrrolidin-2-yl)methoxy)quinazolin-7-yl)benzo[d]thiazol-2-amine], the pIC50 in assay [1] (compound nos. 401-703) is under 6.30; on wildtype Kras / hSOS1 (compound nos. 401-703), over 6.30.
With `CN1CCC[C@H]1COc1nc(N2CCCCC(F)(F)C2)c2cc(Cl)c(-c3cccn4nc(N)nc34)c(F)c2n1` [Compound 182, (S)-8-(6-chloro-4-(3,3-difluoroazepan-1-yl)-8-fluoro-2-((1-methylpyrrol-idin-2-yl)methoxy)quin-azolin-7-yl)[1,2,4]triazolo-[1,5-a]pyridin-2-amine], the pIC50 (in assay [1] (setting [2]); at wildtype Kras / hSOS1 (setting [2])) was under 6.30 throughout.
With `CN1CCC[C@H]1COc1nc(N2CCCC3(CNC3)C2)c2cc(Cl)c(-c3cccc4sc(N)nc34)c(F)c2n1` [Compound 132, 4-(6-chloro-8-fluoro-2-(((S)-1-methylpyrrolidin-2-yl)-methoxy)-4-(2,6-diazaspiro-[3.5]nonan-6-yl)quinazolin-7-yl)benzo[d]thiazol-2-amine], the pIC50 (in assay [1] (setting [2]); on wildtype Kras / hSOS1 (setting [2])) was under 6.30 each time.
As for `Nc1cc(-c2ccc3c(N4CC5CCC(C4)N5)nc(OCC45CCCN4CCC5)nc3c2F)c2ccccc2n1` [Compound 641, 4-(4-(3,8-diazabicyclo-[3.2.1]octan-3-yl)-8-fluoro-2-((tetrahydro-1H-pyrrol-izin-7a(5H)-yl)methoxy)-quinazolin-7-yl)quinolin-2-amine], the pIC50 (in assay [1] (compound nos. 401-703); on wildtype Kras / hSOS1 (compound nos. 401-703)) was under 6.30 throughout.
Regarding `CN(C)CC1(COc2nc(N3CCNCC(F)(F)C3)c3cc(Cl)c(-c4ccc(F)c5sc(N)nc45)c(F)c3n2)CC1` [Compound 489, 4-(6-chloro-4-(6,6-difluoro-1,4-diazepan-1-yl)-2-((1-((dimethylamino)methyl)-cyclopropyl)methoxy)-8-fluoroquinazolin-7-yl)-7-fluorobenzo[d]thiazol-2-amine], the pIC50 (in assay [1] (compound nos. 401-703); at wildtype Kras / hSOS1 (compound nos. 401-703)) was over 6.30 each time.
Consider `Fc1c(-c2cccc3c2C2CC2C3)c(Cl)cc2c(N3CC4CCC(C3)N4)nc(OC[C@@]34CCCN3C[C@H](F)C4)nc12` (stereo partly drawn) [Compound 422, 4-(3,8-diazabicyclo[3.2.1]-octan-3-yl)-6-chloro-8-fluoro-2-(((2R,7aS)-2-fluoro-tetrahydro-1H-pyrrolizin-7a(5H)-yl)methoxy)-7-(1,1a,6,6a-tetrahydrocyclo-propa[a]inden-2-yl)quin-azoline], for which the pIC50 in assay [1] (compound nos. 401-703) was under 6.30; at wildtype Kras / hSOS1 (compound nos. 401-703), over 6.30.
`CN1CCC[C@H]1COc1nc(N2CCCC(NS(C)(=O)=O)CC2)c2cc(Cl)c(-c3cccc4sc(N)nc34)c(F)c2n1` (stereo partly drawn) [Compound 439, N-(1-(7-(2-aminobenzo[d]-thiazol-4-yl)-6-chloro-8-fluoro-2-(((S)-1-methyl-pyrrolidin-2-yl)methoxy)-quinazolin-4-yl)azepan-4-yl)methanesulfonamide]: the pIC50 (in assay [1] (compound nos. 401-703); at wildtype Kras / hSOS1 (compound nos. 401-703)) was over 6.30 each time.

Source of the values: patent publication US20240254129A1, “HETEROCYCLIC COMPOUNDS AND USES THEREOF” (Kumquat Biosciences Inc., priority 2021, published 2024).
